Experimental data: ChEMBL document CHEMBL5625185 (Eur J Med Chem, 2023)

Columns and labels:
Assay type in all cases: ADME, organism-based
Conditions in all cases: in vivo; call rule not given here
[1] = Drug distribution in wild type mouse brain at 50 mg/kg, po measured after 1 hr by UPLC-QTOFMS analysis
[2] = Drug distribution in wild type mouse spleen at 50 mg/kg, po measured after 1 hr by UPLC-QTOFMS analysis
[3] = Drug distribution in wild type mouse testis at 50 mg/kg, po measured after 1 hr by UPLC-QTOFMS analysis
[4] = Drug distribution in wild type mouse liver at 50 mg/kg, po measured after 1 hr by UPLC-QTOFMS analysis
[5] = Drug distribution in wild type mouse lung at 50 mg/kg, po measured after 1 hr by UPLC-QTOFMS analysis
[6] = Cmax in wild type mouse at 50 mg/kg, po measured upto 8 hrs by UPLC-QTOFMS analysis
[7] = Drug distribution in wild type mouse kidney at 50 mg/kg, po measured after 1 hr by UPLC-QTOFMS analysis

Row | SMILES | Drug uptake [1] | Drug uptake [2] | Drug uptake [3] | Drug uptake [4] | Drug uptake [5] | Cmax [6] [µM] | Drug uptake [7]
1 | COc1ccc2c3c([nH]c2c1)[C@H](CC(C)C)N1C(=O)[C@H](CCC(=O)NC(C)C)NC(=O)[C@@H]1C3 | Not Active | Active | Not Active | Active | Active | 8.74 | Active
2 | COc1ccc2c3c([nH]c2c1)[C@H](CC(C)C)N1C(=O)[C@H](CCC(=O)NC(C)(C)C)NC(=O)[C@@H]1C3 | Not Active | Active | Not Active | Active | Active |  | Active
